Assay results: PubChem BioAssay AID1963846 (Molecular Pharmacology Branch, DTP, NCI, 2024)

System: 454973-116-R2-J3-PDC complex spheroid viability
Assay: Anticancer human tumor 454973-116-R2-J3-PDC patient-derived pancreatic carcinoma cell line growth inhibition [POLQ]
Settings: for IC50: curve of first compound; for viability, T/C: stronger effect = lower value
Outline: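 Three-cell-type spheroids modelling solid tumor plus stroma served as the readout system; POL inhibitors were tested individually and in combination, concentration ranges set by clinical Cmax where known.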
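Also: spheroids exposed to drugs for seven days before measurement.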
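For viability, T/C in this document: percent viability relative to DMSO vehicle control wells taken as 100%.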

In the case of `CCCS(=O)(=O)Nc1ccc(F)c(C(=O)c2c[nH]c3ncc(-c4ccc(Cl)cc4)cc23)c1F` + Cc1cccc(N(C)C(=O)C2C(O)CCN2c2nc(C)cc(C(F)(F)F)c2C#N)c1, the IC50 (second compound 0.0316 µM) is reported as 8.18 µM, the IC50 (second compound 0.1 µM) is reported as 8.77 µM and the IC50 (second compound 0.316 µM) is reported as 8.92 µM. The IC50 (second compound 1 µM) was 8.4 µM, the IC50 (second compound 3.16 µM) was 8.13 µM and the IC50 (second compound 10 µM) was 6.95 µM. It also gave a viability, T/C (second compound 0.0316 µM, first compound 0.0316 µM) of 108%, a viability, T/C (second compound 0.0316 µM, first compound 0.1 µM) of 116% and a viability, T/C (second compound 0.0316 µM, first compound 0.316 µM) of 112%. It also gave a viability, T/C (second compound 0.0316 µM, first compound 1 µM) of 118%, a viability, T/C (second compound 0.0316 µM, first compound 3.16 µM) of 113% and a viability, T/C (second compound 0.0316 µM, first compound 10 µM) of 36.7%. It also gave a viability, T/C (second compound 0.1 µM, first compound 0.0316 µM) of 105%, a viability, T/C (second compound 0.1 µM, first compound 0.1 µM) of 111% and a viability, T/C (second compound 0.1 µM, first compound 0.316 µM) of 115%. For the same molecule, the viability, T/C (second compound 0.1 µM, first compound 1 µM) was 122%, the viability, T/C (second compound 0.1 µM, first compound 3.16 µM) was 111% and the viability, T/C (second compound 0.1 µM, first compound 10 µM) was 42.1%. For the same molecule, the viability, T/C (second compound 0.316 µM, first compound 0.0316 µM) was 108%, the viability, T/C (second compound 0.316 µM, first compound 0.1 µM) was 116% and the viability, T/C (second compound 0.316 µM, first compound 0.316 µM) was 118%. It also gave a viability, T/C (second compound 0.316 µM, first compound 1 µM) of 113%, a viability, T/C (second compound 0.316 µM, first compound 3.16 µM) of 123% and a viability, T/C (second compound 0.316 µM, first compound 10 µM) of 42.7%. For the same molecule, the viability, T/C (second compound 1 µM, first compound 0.0316 µM) was 136%, the viability, T/C (second compound 1 µM, first compound 0.1 µM) was 110% and the viability, T/C (second compound 1 µM, first compound 0.316 µM) was 114%. For the same molecule, the viability, T/C (second compound 1 µM, first compound 1 µM) was 111%, the viability, T/C (second compound 1 µM, first compound 3.16 µM) was 126% and the viability, T/C (second compound 1 µM, first compound 10 µM) was 37.3%. For the same molecule, the viability, T/C (second compound 3.16 µM, first compound 0.0316 µM) was 117%, the viability, T/C (second compound 3.16 µM, first compound 0.1 µM) was 110% and the viability, T/C (second compound 3.16 µM, first compound 0.316 µM) was 104%. The viability, T/C (second compound 3.16 µM, first compound 1 µM) was 105%, the viability, T/C (second compound 3.16 µM, first compound 3.16 µM) was 115% and the viability, T/C (second compound 3.16 µM, first compound 10 µM) was 36.8%. For the same molecule, the viability, T/C (second compound 10 µM, first compound 0.0316 µM) was 120%, the viability, T/C (second compound 10 µM, first compound 0.1 µM) was 112% and the viability, T/C (second compound 10 µM, first compound 0.316 µM) was 110%. The viability, T/C (second compound 10 µM, first compound 1 µM) was 111%, the viability, T/C (second compound 10 µM, first compound 3.16 µM) was 118% and the viability, T/C (second compound 10 µM, first compound 10 µM) was 20.3%.
